Laboratory results taken from US7815900B1, “Use of C3-C5 monosaccharides to protect keratinous fibers” (L'Oréal S.A., priority 2000, dated 2010).

How the values were obtained:
[1] = Dry tensile strength (Instron) after heat cycles
Experimental: (§1) Normal blonde hair was bleached with Clairol Basic White Bleach (40 volume H2O2) for 20 min at standard room temperature and humidity. The bleached swatches were rinsed with tap water, and soaked in an excess of deionized water for 2 hours. The swatches were air-dried and equilibrated for 48 hours prior to further treatment. Some of the bleached swatches were subsequently “permed” using a Reforming Lotion (10% TGA, pH 8.8, 20 minutes) and then neutralized with 2% H2O2, pH 3 (5 minutes). The bleached/permed swatches were rinsed with tap water, and soaked in an excess of deionized water for 2 hours. The swatches were air-dried and equilibrated for 48 hours prior to further treatment. The swatches that were heat treated were treated with 0.06M solutions of hexoses and pentoses for 10 min at 45° C. and then were heated for 12 cycles. The swatches were rinsed after the heat application.
(§2) Tensile strength was determined using both the Instron (50 dry fibers per tests) and the Dia-Stron (100 wet fibers per test), with the stretching rate of 100 mm/min. The following parameters were determined: Young's Modulus (N/m^2), Work to stretch 25% (J/m^2); Extension to Break (degree of elongation) (%); Work to Break (J/m^2).
(§3) Normal blonde hair was bleached with Clairol Basic White Bleach, 40 volume H2O2, for 20 min at room temperature. One batch of normal and bleached hair swatches underwent five heat cycles at 130° C., where one treatment cycle involved the following steps (1-4):
(§4) 1. The swatches were treated with 0.06 M solutions of monosaccharides in deionized water (about 1 wt %) for 10 min at 45° C.
(§5) 2. The treated swatches were blow-dried for 1 min.
(§6) 3. The heat was applied for 1 min in the form of a flat hair iron Windmere “Solid Gold” (130° C.).
(§7) 4. The swatches were rinsed and blot-dried with a paper-towel.
(§8) The treatment solutions included four pentoses (D-xylose, D-arabinose, D-lyxose, and D-ribose, 1% each) and one hexose (1.2% D-glucose). Deionized water was used as a control treatment. After the heat experiment, the hair was rinsed in water, air-dried, and equilibrated for 24 hours in the humidity chamber at 25° C. and 50% RH prior to further testing. These swatches are referred to as treated at 130° C.
(§9) A second batch of normal and bleached hair swatches were treated in a similar way and blow-dried, without application of the hot iron. The treatment was also repeated 5 times, the swatches from the second batch are referred to as treated at 45° C.
(§10) Both the bleached and the bleached/permed hair were subjected to heat treatment, as in Example 2. The heat treatment experiment involved 12 heat cycles including application of sugar or control solution before each heat application, and rinsing after the heat application. Deionized water was used as a control treatment.
(§11) After the heat experiment, the hair was rinsed in water, air-dried, and equilibrated for 24 h in the humidity chamber at 25° C. and 50% RH prior to further testing. The effect of the hexoses vs. pentoses on the dry tensile strength (INSTRON) and the alpha-structure (doublet peak area, DSC) was tested on the bleached hair (Table 13). The effect of a hexose (D-glucose) vs. a pentose (D-Xylose) on wet tensile strength (DIA-STRON) was tested both on the bleached and the bleached/permed hair (Table 14). Application of 0.06M solutions of pentoses protected the bleached and the bleached/permed hair against thermal damage (α-structure; wet and dry tensile strength).

[2] = Dry tensile strength (Instron) after heat cycles; details: normal blonde hair, 0.06 M solutions, n = 50 fibers; for Work 25%: dry, 5 cycles at 45° C.; for Work 25% (Dry): 5 heat cycles at 130° C.
Experimental: as §2, §3, §4, §5, §6, §7, §8, §9

[3] = DSC doublet peak area (α-structure) of hair after heat cycles
Experimental: as §1
In the DSC tests, finely cut hair (4-5 mg) was crimped in an aluminum pan that was punctured prior to each run. The samples were heated from 25° C. to 300° C., at a scanning rate of 20° C./min, with 5 runs per treatment. The results were averaged.
as §3, §4, §5, §6, §7, §8, §9
Normal blonde hair was divided in two batches. The hair from the first batch was bleached with Clairol Basic White Bleach, 40 volume H2O2, for 20 min at room temperature and humidity. The hair from the second batch was first bleached as above, and then permed: Reforming lotion-10% Thioglycolic acid, pH 8.8, 20 min; neutralizer-2% hydrogen peroxide, 5 min. The oxidatively damaged hair was equilibrated for 24 hours prior to further testing.
as §10, §11

[4] = Wet tensile strength (Dia-Stron) after heat cycles; details: for Dia-Stron, wet fibers Extension: 1.0% solution, n = 100; for Work 25% (Wet): 0.06 M solutions; for Work 25% (Wet) / Extension-Break / Work 25% / Work-Break / Young's Modulus: n = 100 fibers; for Extension-Break / Work 25% / Work-Break / Young's Modulus: 0.06 M, DIA-STRON
Experimental: Normal blonde hair was bleached with Clairol Basic White Bleach (40 volume H2O2) for 20 min at standard room temperature and humidity. The bleached swatches were rinsed with tap water, and soaked in an excess of deionized water for 2 hours. The swatches were air-dried and equilibrated for 48 hours prior to further treatment. Some of the bleached swatches were subsequently “permed” using a Reforming Lotion (10% TGA, pH 8.8, 20 minutes) and then neutralized with 2% H2O2, pH 3 (5 minutes). The bleached/permed swatches were rinsed with tap water, and soaked in an excess of deionized water for 2 hours. The swatches were air-dried and equilibrated for 48 hours prior to further treatment. The swatches that were heat treated were treated with 0.06M solutions of hexoses and pentoses for 10 min at 45° C. and then were heated for 12 cycles. The swatches were rinsed after the heat application. Tensile strength was determined using both the Instron (50 dry fibers per tests) and the Dia-Stron (100 wet fibers per test), with the stretching rate of 100 mm/min. The following parameters were determined: Young's Modulus (N/m^2), Work to stretch 25% (J/m^2); Extension to Break (degree of elongation) (%); Work to Break (J/m^2). Both the bleached and the bleached/permed hair were subjected to heat treatment, as in Example 2. The heat treatment experiment involved 12 heat cycles including application of sugar or control solution before each heat application, and rinsing after the heat application. Deionized water was used as a control treatment. After the heat experiment, the hair was rinsed in water, air-dried, and equilibrated for 24 h in the humidity chamber at 25° C. and 50% RH prior to further testing. The effect of the hexoses vs. pentoses on the dry tensile strength (INSTRON) and the alpha-structure (doublet peak area, DSC) was tested on the bleached hair (Table 13). The effect of a hexose (D-glucose) vs. a pentose (D-Xylose) on wet tensile strength (DIA-STRON) was tested both on the bleached and the bleached/permed hair (Table 14). Application of 0.06M solutions of pentoses protected the bleached and the bleached/permed hair against thermal damage (α-structure; wet and dry tensile strength).

[5] = bleached hair after 12 heat cycles, 0.06 M solutions, n = 100 fibers
[6] = bleached hair, 5 heat cycles at 130° C., 0.06 M solutions, n = 50 fibers
[7] = dry bleached hair, 12 heat cycles, 0.06 M, INSTRON, n = 50 fibers
[8] = dry, bleached hair, 5 cycles at 45° C., 0.06 M solutions, n = 50 fibers
[9] = bleached hair after 12 heat cycles, 0.06 M solutions
[10] = bleached hair after 12 heat cycles, 0.06 M solutions (Table 14)
[11] = bleached hair, 5 cycles at 45° C., 0.06 M solutions
[12] = bleached hair, 5 heat cycles at 130° C., 0.06 M solutions
[13] = bleached hair after 12 heat cycles
[14] = bleached/permed hair after 12 heat cycles
[15] = wet bleached hair (blonde hair in the source) after 12 heat cycles
[16] = wet bleached/permed hair after 12 heat cycles

Row | SMILES | Work 25% (Dry) [1, 5] | Work 25% (Dry) [1, 6] | Extension-Break [1, 7] | Work 25% [1, 7] | Work-Break [1, 7] | Young's Modulus [1, 7] | Work 25% [1, 8] | Work 25% [2] | Work 25% (Dry) [2] | Doublet Peak Area [3, 9] | Doublet Peak Area [3, 10] | Doublet Peak Area [3, 11] | Doublet Peak Area [3, 12] | Work 25% (Wet) [4, 13] | Work 25% (Wet) [4, 14] | Extension-Break [4, 15] | Work 25% [4, 15] | Work-Break [4, 15] | Young's Modulus [4, 15] | Extension-Break [4, 16] | also measured
1 | O=C[C@H](O)[C@@H](O)[C@H](O)CO [D-Xylose] | 1,204 +/− 215 J/m^2 | 1,051 +/− 191 J/m^2 | 55.28 +/− 7.08% | 1,204 +/− 215 J/m^2 | 3,161 +/− 771 J/m^2 | 5,802 +/− 1,161 MN/m^2 | 1,182 +/− 215 J/m^2 | 1,155 +/− 224 J/m^2 | 1,150 +/− 818 J/m^2 | 9.74 +/− 2.13 J/g hair | 9.74 +/− 2.13 J/g hair | 8.41 +/− 1.33 J/g hair | 9.66 +/− 2.59 J/g hair | 432.0 +/− 137.0 J/m^2 | 199.0 +/− 74.2 J/m^2 | 52.80 +/− 9.29% | 432.0 +/− 137.0 J/m^2 | 1,600 +/− 526 J/m^2 | 434.0 +/− 99.1 MN/m^2 | 54.30 +/− 4.70% | protection of dry tensile strength, in words ([1]; hair treated 5 cycles at 45° C. and at 130° C.): improved protection both at 45 °C and at 130 °C; protection effect (normalized α-structure peak area), in words ([3]; bleached and bleached/permed hair, 12 heat cycles): protection effect was found; Normalized area ([3]; bleached hair, 12 heat cycles, 0.06 M): 9.74 +/− 2.13 J/g hair; extension to break compared to non-treated or water-treated hair, in words ([4]; bleached and bleached/permed hair, 1% solution prior to heat application): significantly shorter; Dia-Stron, wet fibers Extension ([4]; bleached hair after 12 cycles at 130° C.): 52.80 +/− 9.29%; Dia-Stron, wet fibers Extension ([4]; bleached/permed hair after 12 cycles at 130° C.): 54.30 +/− 4.70%; protection against heat (wet tensile properties) compared to water and 1.2% D-glucose, in words ([4]; wet bleached and bleached/permed hair, 12 heat cycles, 1% solution): statistically significant protection against heat; Work 25% [4, 16]: 199.0 +/− 74.2 J/m^2; Work-Break [4, 16]: 620.0 +/− 231.0 J/m^2; Young's Modulus [4, 16]: 170.0 +/− 88.6 MN/m^2
2 | O=C[C@H](O)[C@@H](O)[C@H](O)[C@H](O)CO [D-Glucose, reference compound] | 913.9 +/− 158.2 J/m^2 | 864.7 +/− 184.4 J/m^2 | 56.01 +/− 7.21% | 913.9 +/− 158.2 J/m^2 | 2,599 +/− 604 J/m^2 | 4,623 +/− 813 MN/m^2 | 984.6 +/− 169.6 J/m^2 | 837.0 +/− 255.9 J/m^2 | 836.9 +/− 119.6 J/m^2 | 5.56 +/− 1.16 J/g hair | 5.56 +/− 1.16 J/g hair | 6.35 +/− 2.71 J/g hair | 5.37 +/− 1.22 J/g hair | 187.0 +/− 74.8 J/m^2 | 155.0 +/− 47.5 J/m^2 | 64.20 +/− 10.4% | 187.0 +/− 74.8 J/m^2 | 1,130 +/− 453 J/m^2 | 397.0 +/− 106.0 MN/m^2 | 63.50 +/− 7.65% | protection against heat treatment based on tensile properties and DSC, in words ([4]; Example 2, 12 heat cycles): little or no protection; Work 25% [4, 16]: 155.0 +/− 47.5 J/m^2; Work-Break [4, 16]: 979.0 +/− 300 J/m^2; Young's Modulus [4, 16]: 136.0 +/− 92.5 MN/m^2
